9 compounds from PubChem BioAssay AID588404 (Broad Institute, 2011) can be followed below.

Structures are written as SMILES. Records with an inconclusive call do not appear. The source made the active and inactive calls.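 How the source made its calls: active means every replicate run active, meaning lowered signal with potency within ten times the top valid dose; inconclusive means runs neither all active nor all inactive; inactive means all replicate runs inactive, including opposite-direction effects.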

Tested on in the first experiment: not listed separately
Kind of experiment: yeast relying on human Hsp90, growth inhibitors – plate reader, dry powder samples, counter-screen for P. falciparum Hsp90 inhibitor project, dose response (AID 588404). Conditions: S. cerevisiae expressing HsHsp90, growth, BacTiter-Glo 48 h; at 150 µM (top of the series). (In general: A counterscreen serves to expose hits that act by an unwanted route or on another target.)
In the case of `COc1ccc2c(c1)[nH]c1c(C)nccc12`, the activity change, negative = inhibition was 9.79% (inactive).

Consider `O=C1C(Cl)=C(NCCc2ccccc2)C(=O)c2ccccc21`, for which the activity change, negative = inhibition was 20.9% (inactive).

In a further experiment the test system is S. cerevisiae expressing HsHsp90, growth, BacTiter-Glo 48 h. Described as above.
Details: not given
For `O=C(O)/C=C/c1cn(-c2ccccc2)nc1-c1cc2ccccc2o1`, the AC50 was 9.22 µM.

In the case of `CCOc1cc(S(=O)(=O)NC2CCCCCC2)ccc1F`, the AC50 is 26.6 µM.

As for `O=C1C(Cl)=C(Oc2ccccc2)C(=O)c2ccccc21`, the AC50 is below 2.35 µM.

With `O=S(=O)(NC1CCCCCC1)c1ccc(Br)s1`, the AC50 is 6.82 µM.

In the case of `CCN(CC)c1ccc(/C=C2/SC(=O)N(C(C)C)C2=O)o1`, the half-maximal activity concentration (AC50) was 12.3 µM.

In the case of `O=S(=O)(/C=C/c1ccccc1)NC1CCCCCCC1`, the AC50 is 19.8 µM.

Regarding `O=S(=O)(NC1CC2CCC1C2)c1ccc(Cl)cc1` (centres undefined), the AC50 was 7.89 µM.

Usually AC50 stands for the concentration at which the activity in the assay is half-maximal.
